Test results: patent US20120149700A1, “2-CYANOPHENYL FUSED HETEROCYCLIC COMPOUNDS, AND COMPOSTIONS AND USES THEREOF” (priority 2007, published 2012)

How the values were obtained:
P2X3 = molecular target: T1, P2X3 (Homo sapiens, UniProt P56373); test: Calcium uptake assay (P2X antagonist assay, inhibition of agonist-induced calcium influx), P2X3; assay type: cell-based; details: inhibition of agonist-induced calcium influx in cells expressing the receptor
T1 construct: expressed in transfected cells; host or cells: e.g. HEK293 or 1321N1
T1 sequence (P56373 1-397): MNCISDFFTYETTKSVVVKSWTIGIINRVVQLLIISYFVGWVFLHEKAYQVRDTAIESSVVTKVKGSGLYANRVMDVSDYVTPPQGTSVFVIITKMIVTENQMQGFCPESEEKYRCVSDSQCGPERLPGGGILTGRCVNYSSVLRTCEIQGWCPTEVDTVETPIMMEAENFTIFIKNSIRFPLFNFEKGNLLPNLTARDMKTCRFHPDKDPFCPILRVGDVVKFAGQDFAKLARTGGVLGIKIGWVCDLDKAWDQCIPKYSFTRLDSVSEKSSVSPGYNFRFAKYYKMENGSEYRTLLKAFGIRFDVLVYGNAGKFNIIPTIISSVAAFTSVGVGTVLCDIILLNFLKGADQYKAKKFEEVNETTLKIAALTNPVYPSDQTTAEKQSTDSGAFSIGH
From the text: (§1) The human P2X2/3 chimera clone is created as described by Neelands et al, and then cloned into an expression vector as above. Receptors are expressed in cells (e.g., HEK293 or 1321N1 (obtained from the ECACC)) via transient transfection using standard lipid mediated transfection, or by creation of stable transfectants for each receptor. For expression of the P2X2/3 heteromeric receptor, the P2X3 expression vector is stably transfected into a cell line already stably expressing P2X2. P2X2/3 heteromer function is isolated using pharmacological methods. Cell lines are maintained in DMEM+5% Glutamax, the appropriate level of selective antibiotic, and 10% heat inactivated FBS.
(§2) Functional activity of compounds at the P2X receptor is determined by measuring their ability to inhibit agonist-induced calcium influx. Compounds are tested for antagonist activity against the P2X2/3 chimera, the P2X3 homomer, or the P2X2/3 heteromer. At the start of each screening day, the agonist EC50 is determined. Compound % inhibition or IC50s are subsequently determined using a pre-determined agonist concentration (EC50-90 depending on cell line) as a stimulus. The agonists used are αβMeATP, ATP, or other ATP analogs. Compounds may be tested at concentrations ranging from 1 pM to 10 μM.
(§3) To test for antagonist activity, cells expressing the appropriate receptor are seeded onto 96 or 384 well plates 18-24 hours prior to assay. […] Plates are incubated at 37° C. and then equilibrated at room temperature. Antagonism of agonist-induced calcium influx is measured using a fluorescent imaging plate reader (e.g. FLIPR^TETRA, Molecular Devices, Sunnyvale, Calif.). The assay comprises two stages: a pre-treatment phase followed by a treatment phase. Compounds may be tested as follows: For the pre-treatment phase, 50 μL of 3× concentration of test compound in HBSS is added to cells containing 100 μL of dye loading media to achieve a final concentration of 1× test compound. For the treatment phase, at a set interval after pre-treatment (1-30 minutes), 50 μl, of 1× test compound plus 4× agonist solution is added, resulting in a final concentration of 1× compound and 1× agonist. […] Responses are measured as (peak fluorescence after agonist addition) minus (baseline fluorescence prior to treatment). Percent inhibition is calculated as follows: […]
(§4) IC50 values are determined by analyzing dose response data in a 4 parameter logistic fit using GraphPad Prizm.

P2X2/3 = molecular target: T2, P2X2/3 (Homo sapiens, UniProt P56373+Q9UBL9); test: Calcium uptake assay (P2X antagonist assay, inhibition of agonist-induced calcium influx), P2X2/3; assay type: cell-based; details: inhibition of agonist-induced calcium influx in cells expressing the receptor
T2 construct: expressed in transfected cells; host or cells: cell line stably expressing P2X2, stably transfected with P2X3 (e.g. HEK293 or 1321N1)
T2 sequence (Q9UBL9 1-471): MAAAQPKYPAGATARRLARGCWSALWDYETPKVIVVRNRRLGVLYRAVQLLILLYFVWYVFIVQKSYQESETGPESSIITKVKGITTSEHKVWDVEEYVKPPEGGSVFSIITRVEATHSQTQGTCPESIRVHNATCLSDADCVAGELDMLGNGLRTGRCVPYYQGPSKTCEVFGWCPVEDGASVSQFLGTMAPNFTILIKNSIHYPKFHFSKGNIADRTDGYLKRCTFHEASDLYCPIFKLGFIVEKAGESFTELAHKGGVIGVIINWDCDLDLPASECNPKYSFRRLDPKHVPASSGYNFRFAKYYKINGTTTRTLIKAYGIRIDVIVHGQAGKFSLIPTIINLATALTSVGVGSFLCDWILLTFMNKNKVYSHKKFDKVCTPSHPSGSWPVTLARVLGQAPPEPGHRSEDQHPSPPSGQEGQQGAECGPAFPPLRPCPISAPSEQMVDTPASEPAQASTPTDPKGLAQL
T2 sequence (P56373 1-397): T1 sequence (P56373 1-397)
From the text: as §1, §2, §3, §4

| IC50 (P2X3) | IC50 (P2X2/3) | Structure (SMILES) |
| --- | --- | --- |
| 19 nM | 92 nM | Cc1ccc(N2CCc3ncnc(NCc4ccc(C(F)(F)F)nc4)c3C2)c(C#N)c1 [Compound 1, 5-Methyl-2-{4-[(6-trifluoromethyl-pyridin-3-ylmethyl)-amino]-7,8-dihydro-5H-pyrido[4,3-d]pyrimidin-6-yl}-benzonitrile] |
| 80 nM |  | N#Cc1cc(Br)ccc1N1CCc2ncnc(NCc3ccc(C(F)(F)F)nc3)c2C1 [Compound 2, 5-Bromo-2-{4-[(6-trifluoromethyl-pyridin-3-ylmethyl)-amino]-7,8-dihydro-5H-pyrido[4,3-d]pyrimidin-6-yl}-benzonitrile] |
| 870 nM |  | N#Cc1cc(C2CC2)ccc1N1CCc2ncnc(NCc3ccc(C(F)(F)F)nc3)c2C1 [Compound 3, 5-Cyclopropyl-2-{4-[(6-trifluoromethyl-pyridin-3-ylmethyl)-amino]-7,8-dihydro-5H-pyrido[4,3-d]pyrimidin-6-yl}-benzonitrile] |
| 37 nM | 842 nM | N#Cc1cc(Cl)ccc1N1CCc2ncnc(NCc3ccc(C(F)(F)F)nc3)c2C1 [Compound 4, 5-Chloro-2-{4-[(6-trifluoromethyl-pyridin-3-ylmethyl)-amino]-7,8-dihydro-5H-pyrido[4,3-d]pyrimidin-6-yl}-benzonitrile] |
| 1840 nM |  | N#Cc1cc(C(F)(F)F)ccc1N1CCc2ncnc(NCc3ccc(C(F)(F)F)nc3)c2C1 [Compound 5, 5-Trifluoromethyl-2-{4-[(6-trifluoromethyl-pyridin-3-ylmethyl)-amino]-7,8-dihydro-5H-pyrido[4,3-d]pyrimidin-6-yl}-benzonitrile] |
| 85 nM | 11400 nM | N#Cc1cc(F)ccc1N1CCc2ncnc(NCc3ccc(C(F)(F)F)nc3)c2C1 [Compound 9, 5-Fluoro-2-{4-[(6-trifluoromethyl-pyridin-3-ylmethyl)-amino]-7,8-dihydro-5H-pyrido[4,3-d]pyrimidin-6-yl}-benzonitrile] |
| 63 nM | 1810 nM | N#Cc1ccccc1N1CCc2ncnc(NCc3ccc(C(F)(F)F)nc3)c2C1 [Compound 10, 2-{4-[(6-Trifluoromethyl-pyridin-3-ylmethyl)-amino]-7,8-dihydro-5H-pyrido[4,3-d]pyrimidin-6-yl}-benzonitrile] |
| 187 nM | > 10000 nM | Cc1nc(C(F)(F)F)ccc1CNc1ncnc2c1CN(c1ccc(Cl)cc1C#N)CC2 [Compound 11, 5-Chloro-2-(4-((2-methyl-6-(trifluoromethyl)pyridin-3-yl)methylamino)-7,8-dihydropyrido[4,3-d]pyrimidin-6(5H)-yl)benzonitrile] |
| 628 nM | 1190 nM | CN(C)c1ccc(CNc2ncnc3c2CN(c2ccc(Cl)cc2C#N)CC3)cn1 [Compound 12, 5-Chloro-2-(4-((6-(dimethylamino)pyridin-3-yl)methylamino)-7,8-dihydropyrido[4,3-d]pyrimidin-6(5H)-yl)benzonitrile] |
| 59 nM | 169 nM | COc1ccc(CNc2ncnc3c2CN(c2ccc(Cl)cc2C#N)CC3)cn1 [Compound 13, 5-Chloro-2-(4-((6-methoxypyridin-3-yl)methylamino)-7,8-dihydropyrido[4,3-d]pyrimidin-6(5H)-yl)benzonitrile] |
| 78 nM | 325 nM | COc1ccc(CNc2ncnc3c2CN(c2ccc(Br)cc2C#N)CC3)cn1 [Compound 14, 5-Bromo-2-(4-((6-methoxypyridin-3-yl)methylamino)-7,8-dihydropyrido[4,3-d]pyrimidin-6(5H)-yl)benzonitrile] |
| 91 nM | 1130 nM | N#Cc1cc(Cl)ccc1N1CCc2ncnc(NCc3ncc(C(F)(F)F)cc3Cl)c2C1 [Compound 16, 5-Chloro-2-{4-[(3-chloro-5-trifluoromethyl-pyridin-2-ylmethyl)-amino]-7,8-dihydro-5H-pyrido[4,3-d]pyrimidin-6-yl}-benzonitrile] |
| 118 nM | 4890 nM | N#Cc1cc(Cl)ccc1N1CCc2ncnc(NCc3ccc(C(F)(F)F)cn3)c2C1 [Compound 17, 5-Chloro-2-{4-[(5-trifluoromethyl-pyridin-2-ylmethyl)-amino]-7,8-dihydro-5H-pyrido[4,3-d]pyrimidin-6-yl}-benzonitrile] |
| > 10000 nM | > 10000 nM | COc1ccc([C@@H](CC(=O)OC(C)(C)C)Nc2ncnc3c2CN(c2ccc(Cl)cc2C#N)CC3)cn1 [Compound 18, (R)-3-[6-(4-Chloro-2-cyano-phenyl)-5,6,7,8-tetrahydro-pyrido[4,3-d]pyrimidin-4-ylamino]-3-(6-methoxy-pyridin-3-yl)-propionic acid tert-butyl ester] |
| 1380 nM | > 10000 nM | COc1ccc([C@@H](CC(=O)O)Nc2ncnc3c2CN(c2ccc(Cl)cc2C#N)CC3)cn1 [Compound 19, (R)-3-[6-(4-Chloro-2-cyano-phenyl)-5,6,7,8-tetrahydro-pyrido[4,3-d]pyrimidin-4-ylamino]-3-(6-methoxy-pyridin-3-yl)-propionic acid] |
| 90 nM | 903 nM | N#Cc1cc(Cl)ccc1N1CCc2ncnc(N[C@H](CCO)c3ccc(C(F)(F)F)nc3)c2C1 [Compound 20, 5-Chloro-2-{4-[(R)-3-hydroxy-1-(6-trifluoromethyl-pyridin-3-yl)-propylamino]-7,8-dihydro-5H-pyrido[4,3-d]pyrimidin-6-yl}-benzonitrile] |
| 13 nM | 43 nM | Cc1ccc(N2CCc3ncnc(N[C@H](CCO)c4ccc(C(F)F)nc4)c3C2)c(C#N)c1 [Compound 22, 2-{4-[(R)-1-(6-Difluoromethyl-pyridin-3-yl)-3-hydroxy-propylamino]-7,8-dihydro-5H-pyrido[4,3-d]pyrimidin-6-yl}-5-methyl-benzonitrile] |
| 55 nM | 136 nM | Cc1ccc(N2CCc3ncnc(NC(CCO)c4ccc(C(F)(F)F)nc4)c3C2)c(C#N)c1 (stereo not drawn) [Compound 25, 2-{4-[3-Hydroxy-1-(6-trifluoromethyl-pyridin-3-yl)-propylamino]-7,8-dihydro-5H-pyrido[4,3-d]pyrimidin-6-yl}-5-methyl-benzonitrile] |
| 29 nM | 152 nM | Cc1ccc(N2CCc3ncnc(NCc4ccc(Cl)cn4)c3C2)c(C#N)c1 [Compound 28, 2-{-4-[(5-Chloro-pyridin-2-ylmethyl)-amino]-7,8-dihydro-5,1-pyrido[4,3-d]pyrimidin-6-yl}-5-methyl-benzonitrile] |
| 196 nM | 1670 nM | Cc1ccc(N2CCc3ncnc(NCc4ccccn4)c3C2)c(C#N)c1 [Compound 29, 5-Methyl-2-{4-[(pyridin-2-ylmethyl)-amino]-7,8-dihydro-5H-pyrido[4,3-d]pyrimidin-6-yl}-benzonitrile] |

| Structure (SMILES) | IC50 (P2X3) | IC50 (P2X2/3) |
| --- | --- | --- |
| Cc1ccc(N2CCc3ncnc(NCc4ccc(Cl)nc4)c3C2)c(C#N)c1 [Compound 27, 2-{4-[(6-Chloro-pyridin-3-ylmethyl)-amino]-7,8-dihydro-5H-pyrido[4,3-d]pyrimidin-6-yl}-5-methyl-benzonitrile] | 11 nM | 25 nM |
